Patent US20240116985A1, “STAPLED PEPTIDES AND METHODS THEREOF” (priority 2020, published 2024)
Where two headings read alike, the source gives them in different places.

Tests used:
[1] = molecular target: T1, full-length B-Catenin (Uniprot ID P35222) (Homo sapiens, UniProt P35222); assay: Alphascreen binding assay (beta-catenin / biotin-TCF4 10-53)
T1 construct: 65 nM full-length B-Catenin (Uniprot ID P35222)
T1 sequence (P35222 1-781): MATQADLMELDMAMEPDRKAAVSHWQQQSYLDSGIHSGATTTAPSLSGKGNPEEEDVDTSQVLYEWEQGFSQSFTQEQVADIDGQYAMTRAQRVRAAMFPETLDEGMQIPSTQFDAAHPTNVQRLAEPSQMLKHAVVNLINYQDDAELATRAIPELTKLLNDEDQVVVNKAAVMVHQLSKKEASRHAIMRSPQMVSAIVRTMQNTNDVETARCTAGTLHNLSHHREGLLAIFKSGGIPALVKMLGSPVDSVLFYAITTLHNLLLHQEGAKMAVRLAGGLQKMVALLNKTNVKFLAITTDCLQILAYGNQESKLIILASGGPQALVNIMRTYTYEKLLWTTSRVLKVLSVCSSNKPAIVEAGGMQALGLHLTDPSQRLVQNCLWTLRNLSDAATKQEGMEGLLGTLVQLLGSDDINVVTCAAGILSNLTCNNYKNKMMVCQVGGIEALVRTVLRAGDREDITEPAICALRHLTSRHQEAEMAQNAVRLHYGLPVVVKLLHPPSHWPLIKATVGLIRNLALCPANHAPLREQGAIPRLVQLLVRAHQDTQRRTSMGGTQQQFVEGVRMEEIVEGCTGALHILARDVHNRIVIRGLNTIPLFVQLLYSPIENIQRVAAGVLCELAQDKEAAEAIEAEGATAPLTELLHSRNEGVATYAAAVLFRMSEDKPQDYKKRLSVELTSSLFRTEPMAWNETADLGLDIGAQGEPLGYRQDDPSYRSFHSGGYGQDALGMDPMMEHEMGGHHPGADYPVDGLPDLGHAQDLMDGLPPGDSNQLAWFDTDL
Procedure, shortened: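 AlphaScreen (Ni-chelate beads) competition in 50 mM Tris pH 8.0, 250 mM NaCl with detergents and 0.1% BSA. Peptide titrated 10 uM–5 nM against 65 nM human β-catenin bound to 10 nM biotinylated TCF4 10-53, 15 min then 60 min with beads, both at 20 °C; 1:1 Hill-slope fit.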

[2] = CHI Log D procedure; format: physicochemical; settings: for CHI Log D: pH 7.4; for chromatographic logD: pH 7.4, CHI Log D
[3] = molecular target: T2, full-length beta-Catenin (Uniprot ID P35222) (Homo sapiens, UniProt P35222); assay: Fluorescence polarization IC50 (beta-catenin / 5FAM-TCF4 10-53 competition); format: binding
T2 construct: 10 nM full-length beta-Catenin (Uniprot ID P35222)
T2 sequence (P35222 1-781): T1 sequence (P35222 1-781)

[4] = Table E2-1, read-out: beta-Catenin FP IC50
[5] = fluorescence polarization, beta-catenin, read-out: FP EC50

| Structure (SMILES) | EC50 [1] [nM] | CHI Log D [2] | IC50 [3, 4] [nM] | IC50 [3, 5] [nM] | chromatographic logD [2] |
| --- | --- | --- | --- | --- | --- |
| CC(=O)N1CCC[C@]12CC=CCCCC1(CCCC=CCCCCCC[C@@](C)(C(=O)N[C@@H](Cc3ccccc3)C(=O)N[C@@H](Cc3csc4ccccc34)C(=O)N[C@@H](CCC(N)=O)C(N)=O)NC(=O)[C@H](C(C)C)NC(=O)[C@H](Cc3ccccc3)NC(=O)[C@H](C)NC(=O)[C@H](C)NC(=O)[C@H](Cc3ccc4ccccc4c3)NC(=O)[C@H](CC(=O)O)NC1=O)NC(=O)[C@H](C)NC(=O)[C@H](CC(=O)O)NC2=O (stereo partly drawn) [I-297, Ac-PL3-Asp-Ala-B5-Asp-2NapA-Ala-Ala-Phe-Val-S8-Phe-BztA-Gln-NH2] | 5810 |  |  |  | 3.29 |
| CC(=O)N1CCC[C@]12CC=CCCCC1(CCCC=CCCCCCC[C@@](C)(C(=O)N[C@@H](Cc3ccccc3)C(=O)N[C@@H](Cc3csc4ccccc34)C(=O)N[C@@H](CCC(N)=O)C(N)=O)NC(=O)[C@H](CO)NC(=O)[C@H](Cc3ccccc3)NC(=O)[C@H](C)NC(=O)[C@H](C)NC(=O)[C@H](Cc3ccc4ccccc4c3)NC(=O)[C@H](CC(=O)O)NC1=O)NC(=O)[C@H](C)NC(=O)[C@H](CC(=O)O)NC2=O (stereo partly drawn) [I-298, Ac-PL3-Asp-Ala-B5-Asp-2NapA-Ala-Ala-Phe-Ser-S8-Phe-BztA-Gln-NH2] | 3860 |  |  |  | 2.78 |
| CC(=O)N1CCC[C@]12CC=CCCCC1(CCCC=CCCCCCC[C@@](C)(C(=O)N[C@@H](Cc3cccc(Cl)c3)C(=O)N[C@@H](Cc3c[nH]c4ccccc34)C(=O)N[C@@H](CCC(N)=O)C(N)=O)NC(=O)[C@H](C(C)C)NC(=O)[C@H](Cc3ccccc3)NC(=O)[C@H](C)NC(=O)[C@H](C)NC(=O)[C@H](CC(=O)O)NC(=O)[C@H](CC(=O)O)NC1=O)NC(=O)[C@H](C)NC(=O)[C@H](CC(=O)O)NC2=O (stereo partly drawn) [I-310, Ac-PL3-Asp-Ala-B5-Asp-Asp-Ala-Ala-Phe-Val-S8-3C1F-Trp-Gln-NH2] | 3240 | 2.188 |  |  |  |
| CC(=O)N1CCC[C@]12CC=CCCCC1(CCCC=CCCCCCC[C@@](C)(C(=O)N[C@@H](Cc3ccc(Cl)cc3)C(=O)N[C@@H](Cc3c[nH]c4ccccc34)C(=O)N[C@@H](CCC(N)=O)C(N)=O)NC(=O)[C@H](C(C)C)NC(=O)[C@H](Cc3ccccc3)NC(=O)[C@H](C)NC(=O)[C@H](C)NC(=O)[C@H](CC(=O)O)NC(=O)[C@H](CC(=O)O)NC1=O)NC(=O)[C@H](C)NC(=O)[C@H](CC(=O)O)NC2=O (stereo partly drawn) [I-313, Ac-PL3-Asp-Ala-B5-Asp-Asp-Ala-Ala-Phe-Val-S8-4C1F-Trp-Gln-NH2] | 3600 | 2.159 |  |  |  |
| CC(=O)N1CCC[C@]12CC=CCCCC1(CCCC=CCCCCCC[C@@](C)(C(=O)N[C@@H](Cc3ccccc3)C(=O)N[C@@H](Cc3c[nH]c4ccccc34)C(=O)N[C@@H](CCC(N)=O)C(N)=O)NC(=O)[C@H](C(C)C)NC(=O)[C@H](Cc3ccccc3)NC(=O)[C@H](C)NC(=O)[C@H](C)NC(=O)[C@H](CCC(=O)O)NC(=O)[C@H](CC(=O)O)NC1=O)NC(=O)[C@H](C)NC(=O)[C@H](Cc1c[nH]cn1)NC2=O (stereo partly drawn) [I-315, Ac-PL3-His-Ala-B5-Asp-Glu-Ala-Ala-Phe-Val-S8-Phe-Trp-Gln-NH2] | 9900 | 2.359 |  |  |  |
| CC(=O)N1CCC[C@]12CC=CCCCC1(CCCC=CCCCCCC[C@@](C)(C(=O)N[C@@H](Cc3ccccc3)C(=O)N[C@@H](Cc3c[nH]c4ccccc34)C(=O)N[C@@H](CCC(N)=O)C(N)=O)NC(=O)[C@H](C(C)C)NC(=O)[C@H](Cc3c[nH]cn3)NC(=O)[C@H](C)NC(=O)[C@H](C)NC(=O)[C@H](CC(=O)O)NC(=O)[C@H](CC(=O)O)NC1=O)NC(=O)[C@H](C)NC(=O)[C@H](CC(=O)O)NC2=O (stereo partly drawn) [I-321, Ac-PL3-Asp-Ala-B5-Asp-Asp-Ala-Ala-His-Val-S8-Phe-Trp-Gln-NH2] | 2240 | 2.073 |  |  |  |

Now those with a lower EC50 [1], led by results:

| EC50 [1] [nM] | CHI Log D [2] | IC50 [3, 4] [nM] | IC50 [3, 5] [nM] | chromatographic logD [2] | Structure (SMILES) |
| --- | --- | --- | --- | --- | --- |
| 650 | 1.222 | 4250 | 4250 |  | CC[C@H](C)[C@H](NC(=O)[C@H](CC(=O)O)NC(=O)[C@H](C)NC(C)=O)C(=O)N[C@]1(C)CCN(C)C(=O)OCC=CCCCCC[C@@](C)(C(=O)N[C@@H](Cc2ccccc2)C(=O)N[C@@H](Cc2c[nH]c3ccccc23)C(=O)N[C@@H](Cc2c[nH]cn2)C(N)=O)NC(=O)[C@H](CCC(N)=O)NC(=O)[C@H](Cc2ccccc2)NC(=O)[C@H](C)NC(=O)[C@H](C)NC(=O)[C@H](CC(=O)O)NC(=O)[C@H](CC(=O)O)NC1=O [I-64, Ac-Ala-Asp-Ile-RdN-Asp-Asp-Ala-Ala-Phe-Gln-S7-Phe-Trp-His-NH2] |
| 175 | 1.259 | 1090 | 1090 |  | CC[C@H](C)[C@H](NC(=O)[C@H](CC(=O)O)NC(=O)[C@H](C)NC(C)=O)C(=O)N[C@]1(C)CCN(C)C(=O)OCC=CCCCCC[C@@](C)(C(=O)N[C@@H](Cc2ccccc2)C(=O)N[C@@H](Cc2c[nH]c3ccccc23)C(=O)N[C@@H](Cc2c[nH]cn2)C(N)=O)NC(=O)[C@H](CCC(N)=O)NC(=O)[C@H](Cc2ccccc2)NC(=O)[C@H](C)NC(=O)[C@H](C)NC(=O)[C@H](CCC(=O)O)NC(=O)[C@H](CC(=O)O)NC1=O [I-66, Ac-Ala-Asp-Ile-RdN-Asp-Glu-Ala-Ala-Phe-Gln-S7-Phe-Trp-His-NH2] |
| 552 | 2.245 | 4840 | 4840 |  | CC(=O)N1CCC[C@]12CC=CCCCC1(CCCC=CCCCCCC[C@@](C)(C(=O)N[C@@H](Cc3ccccc3)C(=O)N[C@@H](Cc3c[nH]c4ccccc34)C(=O)N[C@@H](CCC(N)=O)C(N)=O)NC(=O)[C@H](C(C)C)NC(=O)[C@H](Cc3ccccc3)NC(=O)[C@H](C)NC(=O)[C@H](C)NC(=O)[C@H](CCC(N)=O)NC(=O)[C@H](CC(=O)O)NC1=O)NC(=O)[C@H](C)NC(=O)[C@H](CC(=O)O)NC2=O (stereo partly drawn) [I-127, Ac-PL3-Asp-Ala-B5-Asp-Gln-Ala-Ala-Phe-Val-S8-Phe-Trp-Gln-NH2] |
| 1910 |  |  |  | 2.94 | CC(=O)N1CCC[C@]12CC=CCCCC1(CCCC=CCCCCCC[C@@](C)(C(=O)N[C@@H](Cc3ccccc3)C(=O)N[C@@H](Cc3csc4ccccc34)C(=O)N[C@@H](C)C(N)=O)NC(=O)[C@H](CCC(N)=O)NC(=O)[C@H](Cc3ccccc3)NC(=O)[C@H](C)NC(=O)[C@H](C)NC(=O)[C@H](Cc3ccc4ccccc4c3)NC(=O)[C@H](CC(=O)O)NC1=O)NC(=O)[C@H](C)NC(=O)[C@H](CC(=O)O)NC2=O (stereo partly drawn) [I-296, Ac-PL3-Asp-Ala-B5-Asp-2NapA-Ala-Ala-Phe-Gln-S8-Phe-BztA-Ala-NH2] |
| 1240 | 2.226 |  |  |  | CC(=O)N1CCC[C@]12CC=CCCCC1(CCCC=CCCCCCC[C@@](C)(C(=O)N[C@@H](Cc3cccc(Cl)c3)C(=O)N[C@@H](Cc3c[nH]c4ccccc34)C(=O)N[C@@H](CCC(N)=O)C(N)=O)NC(=O)[C@H](C(C)C)NC(=O)[C@H](Cc3ccccc3)NC(=O)[C@H](C)NC(=O)[C@H](C)NC(=O)[C@H](CC(=O)O)NC(=O)[C@H](CC(=O)O)NC1=O)NC(=O)[C@H](C)NC(=O)[C@H](CC(=O)O)NC2=O (stereo partly drawn) [I-311, Ac-PL3-Asp-Ala-B5-Asp-Asp-Ala-Ala-Phe-Val-S8-3C1F-Trp-Gln-NH2] |
| 355 | 1.933 |  |  |  | CC(=O)N1CCC[C@]12CC=CCCCC1(CCCC=CCCCCCC[C@@](C)(C(=O)N[C@@H](Cc3ccccc3)C(=O)N[C@@H](Cc3c[nH]c4ccccc34)C(=O)N[C@@H](CCC(N)=O)C(N)=O)NC(=O)[C@H](C(C)C)NC(=O)[C@H](Cc3ccc(N)cc3)NC(=O)[C@H](C)NC(=O)[C@H](C)NC(=O)[C@H](CC(=O)O)NC(=O)[C@H](CC(=O)O)NC1=O)NC(=O)[C@H](C)NC(=O)[C@H](CC(=O)O)NC2=O (stereo partly drawn) [I-322, Ac-PL3-Asp-Ala-B5-Asp-Asp-Ala-Ala-4AmPhe-Val-S8-Phe-Trp-Gln-NH2] |
| 1750 |  |  |  | 2.6 | CC(=O)N1CCC[C@]12CC=CCCCC1(CCCC=CCCCCCC[C@@](C)(C(=O)N[C@@H](Cc3ccccc3)C(=O)N[C@@H](Cc3c[nH]c4ccccc34)C(=O)N[C@@H](CCC(N)=O)C(N)=O)NC(=O)[C@H](C(C)C)NC(=O)[C@H](Cc3ccccc3)NC(=O)[C@H](C)NC(=O)[C@H](C)NC(=O)[C@H](Cc3ccc(N)cc3)NC(=O)[C@H](CC(=O)O)NC1=O)NC(=O)[C@H](C)NC(=O)[C@H](CC(=O)O)NC2=O (stereo partly drawn) [I-324, Ac-PL3-Asp-Ala-B5-Asp-4AmPhe-Ala-Ala-Phe-Val-S8-Phe-Trp-Gln-NH2] |
